Measured values: patent publication US5945436A, “Pyridylmethyl nitriles, amides and thioamides useful as fungicides” (Uniroyal Chemical Company, Inc., priority 1997, dated 1999)

Key:
Erysiphe graminis [1] = assay: Powdery mildew in barley, foliar application (ERY GRA); format: in vivo; conditions: foliar, 1,000 mg/l, 8 days after inoculation; for pest or weed control at 1000 µg/mL: Blumeria graminis, foliar, 192 h, read-out: Percent Reduction of Disease, ERY GRA
Method in brief: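 'Robust' barley plants sprayed with acetone/TWEEN 20 aqueous emulsion at 1,000 mg/l, dried, then kept at 21° C in a greenhouse. Inoculated by distributing Erysiphe graminis spores from infected plants. Percent control computed from disease scores vs unsprayed control pots.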

Helminthosporium sativum = assay: Barley spot blotch, foliar treatment (HEL SAT); format: in vivo; conditions: foliar, 1,000 mg/l; for pest or weed control at 1000 µg/mL: Helminthosporium, foliar, 216 h, read-out: Percent Reduction of Disease, HEL SAT
Method in brief: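 Percent control of H. sativum blotch was computed after foliar spraying of six-day-old "Robust" barley (10 plants/pot) at 1,000 mg/l versus unsprayed pots. Spore inoculation followed spraying, then 24 h in a 99% humidity chamber and eight days in a 21° C greenhouse.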

Pyricularia oryzae = assay: whole plant or invertebrate; format: in vivo; conditions: for Percent Reduction of Disease, PYR ORY: barley, foliar, 1,000 mg/l; for pest or weed control at 1000 µg/mL: Pyricularia oryzae, in Hordeum vulgare, foliar, 216 h, read-out: Percent Reduction of Disease, PYR ORY, barley, foliar, 1,000 mg/l
Erysiphe graminis [2] = assay: Powdery mildew of barley, systemic root uptake (BMS); format: in vivo; conditions: 45 ml of 250 mg/l, 8 days after inoculation
Method in brief: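 Pot soil of barley (BMS) and cucumber (CMS) plants was drenched with 45 ml of a 250 mg/l acetone/Tween 20 aqueous emulsion, with untreated plants as controls. Disease was scored on a rating scale that included intermediate grades.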

Fusarium oxysporum = assay: Fungal growth inhibition, treated disc on agar (FUS OXY); format: cell-based; conditions: disc dipped in 500 mg/l, 29° C.; for inhibition at 500 µg/mL: Fusarium oxysporum, read-out: Percent Growth Inhibition, FUS OXY
Uromyces phaseoli = assay: Bean rust fungus eradicant test (URO PHA); format: in vivo; conditions: pinto bean, eradicant spray 2 days after inoculation, 1,000 mg/l; for pest or weed control at 1000 µg/mL: Uromyces phaseoli, 216 h, read-out: Percent Reduction of Disease, URO PHA
Method in brief: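 Seven-day-old pinto bean plants (Phaseolus vulgaris, primary leaf) were inoculated with 20,000 spores/ml, held 24 h at 99% humidity and 21° C., then sprayed two days post-inoculation with acetone/TWEEN 20 emulsions at 1,000 mg/l. After nine days in a 21° C. greenhouse, disease was scored as percent reduction versus unsprayed controls.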

Scierotinia minor = assay: Fungal growth inhibition, treated disc on agar (SCL MIN); format: cell-based; conditions: disc dipped in 500 mg/l, 29° C.; for inhibition at 500 µg/mL: read-out: Percent Growth Inhibition, SCL MIN
Pythium ultimum = assay: Fungal growth inhibition, treated disc on agar (PYT ULT); format: cell-based; conditions: disc dipped in 500 mg/l, 29° C.; for inhibition at 500 µg/mL: Globisporangium ultimum, read-out: Percent Growth Inhibition, PYT ULT
Rhizoctonia solani = assay: Fungal growth inhibition, treated disc on agar (RHI SOL); format: cell-based; conditions: disc dipped in 500 mg/l, 29° C.; for inhibition at 500 µg/mL: Rhizoctonia solani, read-out: Percent Growth Inhibition, RHI SOL

Row | Structure (SMILES) | Percent Reduction of Disease, ERY GRA (Erysiphe graminis [1]) [%] | Percent Reduction of Disease, HEL SAT (Helminthosporium sativum) [%] | Percent Reduction of Disease, PYR ORY (Pyricularia oryzae) [%] | Percent Reduction of Disease, BMS (Erysiphe graminis [2]) [%] | Percent Growth Inhibition, FUS OXY (Fusarium oxysporum) [%] | Percent Reduction of Disease, URO PHA (Uromyces phaseoli) [%] | Percent Growth Inhibition, SCL MIN (Scierotinia minor) [%] | Percent Growth Inhibition, PYT ULT (Pythium ultimum) [%] | Percent Growth Inhibition, RHI SOL (Rhizoctonia solani) [%] | pest or weed control at 1000 µg/mL (Erysiphe graminis [1]) [%] | pest or weed control at 1000 µg/mL (Helminthosporium sativum) [%] | pest or weed control at 1000 µg/mL (Pyricularia oryzae) [%] | inhibition at 500 µg/mL (Fusarium oxysporum) [%] | pest or weed control at 1000 µg/mL (Uromyces phaseoli) [%] | inhibition at 500 µg/mL (Scierotinia minor) [%] | inhibition at 500 µg/mL (Pythium ultimum) [%] | inhibition at 500 µg/mL (Rhizoctonia solani) [%]
1 | COc1ccc(CCC(C#N)(CC(C)C)c2ccccn2)cc1 (stereo not drawn) [Compound 29] | 100 | 100 | 85 | 0 | 97 | 100 | 94 | 0 | 70 |  |  |  |  |  |  |  | 
2 | CCCCCC(C#N)(CCc1ccc(OC)cc1)c1ccccn1 (stereo not drawn) [Compound 30] | 100 | 90 | 100 | 0 | 100 | 100 | 100 | 0 | 10 |  |  |  |  |  |  |  | 
3 | CCCCC(C#N)(CCc1ccc(OC)cc1)c1ccccn1 (stereo not drawn) [Compound 31] | 20 | 90 | 0 | 0 | 83 | 35 | 75 | 93 | 5 |  |  |  |  |  |  |  | 
4 | N#CC(CCCc1ccc(Cl)cc1)(CC1CC1)c1ccccn1 (stereo not drawn) [Compound 32] | 100 | 90 | 100 | 0 | 100 | 85 | 98 | 0 | 0 |  |  |  |  |  |  |  | 
5 | C=CCC(C#N)(CCc1ccc(C)cc1)c1cccnc1 (stereo not drawn) [Compound 33] |  |  |  | 40 |  |  |  |  |  | 100 | 100 | 85 | 100 | 100 | 100 | 50 | 0
6 | CCCCC(C#N)(CCc1ccc(OCC)cc1)c1cccnc1 (stereo not drawn) [Compound 35] |  |  |  | 0 | 30 | 90 | 88 | 0 |  | 85 | 100 | 55 |  |  |  |  | 40
7 | CCCCCCC(C#N)(CCc1ccc(OC)cc1)c1cccnc1 (stereo not drawn) [Compound 36] |  |  |  | 0 |  |  |  |  |  | 85 | 100 | 90 | 80 | 100 | 100 | 75 | 25
8 | COc1ccc(CCC(C#N)(CC2CC2)c2cccnc2)cc1 (stereo not drawn) [Compound 37] |  |  |  | 0 |  |  |  |  |  | 92 | 100 | 100 | 100 | 92 | 100 | 9 | 13
9 | C#CCC(C#N)(CCc1ccc(OC)cc1)c1cccnc1 (stereo not drawn) [Compound 38] |  |  |  | 0 |  |  |  |  |  | 83 | 100 | 17 | 100 | 0 | 46 | 100 | 0
10 | CC(C)CC(C#N)(CCc1ccc(F)cc1)c1cccnc1 (stereo not drawn) [Compound 39] |  |  |  | 0 |  |  |  |  |  | 92 | 100 | 100 | 30 | 92 | 42 | 44 | 11
11 | C=CCC(C#N)(CCc1ccc(OCC)cc1)c1cccnc1 (stereo not drawn) [Compound 40] |  |  |  | 0 |  |  |  |  |  | 67 | 100 | 92 | 100 | 17 | 100 | 61 | 0
12 | C#CCC(C#N)(CCc1ccc(F)cc1)c1cccnc1 (stereo not drawn) [Compound 41] |  |  |  | 0 |  |  |  |  |  | 92 | 100 | 92 | 30 | 0 | 48 | 9 | 26
13 | CCCCC(C#N)(CCc1ccc(OCC)cc1)c1cccnc1.Cl (stereo not drawn) [Compound 42, α-butyl-4-ethoxy-α-(3-pyridinyl)-benzenebutanenitrile hydrochloride] | 92 | 100 | 67 | 0 | 100 | 33 | 44 | 3 | 32 |  |  |  |  |  |  |  | 
14 | CCOc1ccc(CCC(C#N)(CC(C)C)c2cccnc2)cc1 (stereo not drawn) [Compound 43] |  |  |  | 0 |  |  |  |  |  | 92 | 100 | 100 | 100 | 83 | 100 | 36 | 48
15 | CCCCCCC(C#N)(CCc1ccc(OCC)cc1)c1cccnc1 (stereo not drawn) [Compound 44] |  |  |  | 0 |  |  |  |  |  | 83 | 100 | 17 | 8 | 92 | 100 | 89 | 30
16 | CCCCCCC(C#N)(CCc1ccc(F)cc1)c1cccnc1 (stereo not drawn) [Compound 45] |  |  |  | 0 |  |  |  |  |  | 92 | 100 | 17 | 14 | 92 | 100 | 89 | 6
17 | CCCC(C#N)(CCc1ccc(OCC)cc1)c1cccnc1 (stereo not drawn) [Compound 46] |  |  |  | 0 |  |  |  |  |  | 92 | 100 | 0 | 100 | 33 | 100 | 59 | 8
18 | CC(C)=CCC(C#N)(CCc1ccc(F)cc1)c1cccnc1 (stereo not drawn) [Compound 47] |  |  |  | 0 |  |  |  |  |  | 70 | 100 | 0 | 50 | 33 | 100 | 100 | 45
19 | COc1ccc(CCC(C#N)(CC=C(C)C)c2cccnc2)cc1 (stereo not drawn) [Compound 48] |  |  |  | 0 |  |  |  |  |  | 67 | 100 | 33 | 100 | 83 | 100 | 53 | 28
20 | CC(C)CCC(C#N)(CCc1ccc(F)cc1)c1cccnc1 (stereo not drawn) [Compound 49] |  |  | 17 | 0 |  | 83 | 100 | 76 | 100 | 100 | 100 |  | 65 |  |  |  | 
